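Method: 48-hour compound exposure of cells in 96-well plates, five concentrations, linear interpolation of endpoints. GI50 = concentration required for 50% inhibition of growth. At the TGI there is no net growth.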

Common to all, as to test: NCI anticancer screen, dose series, 48 h
In assay [1] the test system is NCI-H522 lung.
Assay [2] relates to SF-539 CNS.
In assay [3] the test system is SNB-75 CNS.
Assay [4] has as its system MOLT-4 leukemia.
Assay [5] deals with OVCAR-4 ovarian.
The subject of assay [6] is UO-31 renal.
Assay [7] concerns SK-MEL-28 melanoma.
In assay [8] the test system is SF-295 CNS.
Assay [9] concerns COLO 205 colon.

`CC(NS(=O)(=O)c1ccc([N+](=O)[O-])cc1)C(=O)O` (stereo not given): the TGI in assay [1], in [2], in assay [3], in [4], in assay [5] and in assay [6] was more than 100 µM each time. Besides, the TGI in assay [7], in assay [8] and in assay [9] was more than 100 µM in each case.

With `COc1ccccc1/C=C(\C#N)c1ccccc1`, the TGI was 44.7 µM in assay [1]; more than 100 µM in [2]; 60 µM in assay [3]; 97.3 µM in [4]; more than 100 µM in assay [5]; 97.5 µM in assay [6]. Besides, the TGI is more than 100 µM in assay [7], more than 100 µM in [8] and 32.4 µM in [9].

With `C/C(CN1C(=O)c2ccccc2C1=O)=N\NS(=O)(=O)c1ccc(C)cc1`, the TGI in assay [1], in assay [2], in assay [3], in assay [4], in assay [5] and in assay [6] was more than 100 µM in each case. Moreover, the TGI in [8] and in assay [9] was more than 100 µM throughout.

Consider `Cc1ccc(S(=O)(=O)c2c(N)c3nc4ccccc4n3c3nc4ccccc4nc23)cc1`, for which the TGI in assay [1], in assay [2], in assay [3], in [4], in [5] and in assay [6] was more than 100 µM throughout. For the same compound, the TGI in assay [7], in assay [8] and in assay [9] was more than 100 µM in each case.

On to `CC1CC[C@]2(C(=O)O)CCC3(COC(=O)/C=C\c4ccc(O)cc4)C(=CCC4[C@@]5(C)CC[C@H](O)C(C)(C)C5CC[C@]43C)[C@@H]2[C@H]1C` (stereo not given in full), for which the TGI in assay [1] is 44.6 µM; in assay [2], 31.3 µM; in [3] it was 80.9 µM; in assay [4], more than 100 µM; in assay [5], more than 100 µM; in assay [6] it was 32.1 µM. Also, the figures for the TGI in assay [7], in assay [8] and in assay [9] were 35.5 µM, 31.7 µM and 50.9 µM, respectively.

With `CN(C)c1ccc2c(=O)c3ccccc3oc2n1`, the TGI in assay [1], in [3], in assay [4], in assay [5], in assay [6] and in assay [7] was more than 100 µM throughout. For the same compound, the TGI in assay [8] and in assay [9] was more than 100 µM in each case.

Turning to `N#Cc1ccccc1NC(=O)/C(=N\N)C(C(=O)c1ccncc1)C1OC(=O)c2ccccc21` (stereo not given), the TGI in [1], in assay [2], in [4], in [5], in assay [6] and in assay [7] was more than 100 µM throughout. Further, the TGI in assay [8] and in assay [9] was more than 100 µM in each case.

Consider `O=C1[C@@H]2C(c3ccccc3Br)=NO[C@@H]2C(=O)N1c1ccc(Cc2ccc(N3C(=O)[C@H]4C(c5ccccc5Br)=NO[C@H]4C3=O)cc2)cc1`, for which the TGI in assay [2], in assay [3], in assay [4], in assay [5], in [6] and in assay [7] was more than 100 µM in each case. Further, the TGI in assay [8] and in assay [9] was more than 100 µM throughout.

In the case of `C[N+](C)(C)CC1CCCC/C1=N\OC(=O)c1ccccc1` (stereo not given), the TGI in [1], in assay [2], in [3], in [4], in assay [5] and in assay [6] was more than 100 µM each time. Further, the TGI in assay [7], in assay [8] and in assay [9] was more than 100 µM each time.

On to `CCOC(=O)Nc1cc2nnc(-c3ccccc3)nc2c(N)n1`, for which the TGI in [2] was 61.9 µM; in assay [3], 61.6 µM; in [5], 69.2 µM; in assay [6], 84.7 µM; in [7] it was more than 100 µM; in assay [8] it was 15.2 µM. The compound also yielded a TGI in assay [9] of 40.5 µM.

On to `NC1=NC(=O)/C(=C/c2ccccc2[N+](=O)[O-])C(N)=N1`, for which the TGI in [1], in [2], in assay [3], in assay [4], in assay [5] and in assay [6] was more than 100 µM throughout. Also, the TGI in [7], in assay [8] and in [9] was more than 100 µM throughout.

On to `Cc1ccccc1NC(=O)C(=O)C(C#N)c1ccc(Cl)cc1` (stereo not given), for which the TGI in assay [1] was more than 100 µM; in assay [2], 83.5 µM; in assay [3], more than 100 µM; in assay [4], more than 100 µM; in [6], more than 100 µM; in assay [7], more than 100 µM. The TGI in [8] and in assay [9] was more than 100 µM throughout.

Consider `CC1CC(C2=CC=CCS2)=Nc2ccccc2S1` (stereo not given), for which the TGI in [1] was more than 100 µM; in assay [2] it was more than 100 µM; in [3], 78.6 µM; in assay [4] it was more than 100 µM; in assay [5], more than 100 µM; in [6], more than 100 µM. Moreover, the TGI in assay [7], in assay [8] and in [9] was more than 100 µM in each case.

Regarding `CN1N=CSC12C(=O)N(c1ccc(Cl)cc1)C(=O)N2c1ccc(Cl)cc1` (stereo not given), the TGI in assay [1] is 5.73 µM; in [2], more than 100 µM; in assay [3], 16.5 µM; in assay [4], 12.3 µM; in assay [5], more than 100 µM; in [6], 8.08 µM. Besides, the figures for the TGI in assay [7], in assay [8] and in assay [9] were more than 100 µM, 9.16 µM and 3.38 µM, respectively.

Consider `O=C(Nc1c(O)[nH]c(=S)[nH]c1=O)c1ccccc1F`, for which the TGI in [1], in assay [2], in [3], in assay [4], in [5] and in assay [6] was more than 100 µM in each case. The TGI in [7], in assay [8] and in assay [9] was more than 100 µM throughout.

With `Cc1ccc(NC(=O)c2cc3cc(N=Nc4ccc(Br)cc4)ccc3oc2=O)cc1`, the TGI in [1], in assay [3], in [4], in [5], in assay [7] and in [8] was more than 100 µM in each case. Moreover, in assay [9], the TGI is more than 100 µM.

Consider `CCOc1ccccc1NC(=O)CC1C(=O)Nc2ccccc2S1=O` (stereo not given), for which the TGI in assay [1] was more than 100 µM; in assay [2], more than 100 µM; in [3] it was more than 100 µM; in [4], 39.5 µM; in assay [5] it was more than 100 µM; in assay [6] it was more than 100 µM. Also, the TGI in assay [7] and in assay [8] was more than 100 µM throughout.

Turning to `ON/N=C/c1cc2c(cc1Br)OCO2`, the TGI in assay [1], in assay [2], in assay [4], in assay [7], in [8] and in [9] was more than 386 µM in each case.

Consider `COc1c(C=O)c2c(c(OC)c1OC)-c1ccc(OC)c(=O)cc1[C@@H](NC(C)=O)CC2`, for which the TGI in assay [2] is 0.0644 µM; in assay [3], more than 100 µM; in assay [4], more than 17.8 µM; in [5], more than 100 µM; in assay [6], more than 100 µM; in assay [7], more than 100 µM. In addition, the TGI was 0.449 µM in assay [8] and 0.574 µM in assay [9].

For the compound `Cc1cn(Cc2ccccc2CCO)c(=S)[nH]c1=O`, the TGI in assay [1], in [2], in assay [3], in [4], in assay [5] and in assay [6] was more than 100 µM throughout. For the same compound, the TGI in assay [7], in assay [8] and in [9] was more than 100 µM each time.

Turning to `COc1ccc(C2CC(=O)c3c(O)cc(O)cc3O2)cc1O` (stereo not given), the TGI in [1], in [2], in [3], in assay [4], in assay [5] and in assay [6] was more than 100 µM in each case. The TGI in assay [7], in assay [8] and in assay [9] was more than 100 µM each time.

In the case of `Nc1ccc2c(c1)C(=O)C(=O)c1c-2nc2ccccn12`, the GI50 in assay [2] was 1660 nM; in [3] it was 1040 nM; in [4], 1960 nM; in assay [5], 1230 nM; in assay [6] it was 1280 nM; in [7], 1260 nM. Further, the GI50 was 1530 nM in assay [8] and 10.8 µM in assay [9]. The TGI was determined as 3.03 µM in [2]; 2.28 µM in assay [3]; 4.88 µM in assay [4]; 2.49 µM in [5]; 2.64 µM in assay [6]; 2.64 µM in assay [7]. Moreover, the TGI in [8] came out at 2.89 µM; in [9] it was 26.6 µM.

For the compound `O=C(O)C/C(=C\c1ccco1)C(=O)O`, the TGI in assay [1], in [2], in assay [3], in [4], in assay [5] and in [6] was more than 100 µM each time. Further, the TGI in assay [7], in [8] and in [9] was more than 100 µM throughout.

For `CC(C)/C=C1\CCC(CN2CCCC2)C1=O` (stereo not given), the TGI turned out to be 3.71 µM in assay [1]; 35.6 µM in assay [2]; 14.9 µM in assay [4]; 32.5 µM in assay [5]; 32.5 µM in assay [6]; 32.9 µM in assay [7]. Moreover, the TGI in assay [8] was more than 94.5 µM; in assay [9], 18.1 µM.

As for `CN1C(=O)CC(c2cccc(C3CC(=O)N(C)C3=O)n2)C1=O` (stereo not given), the TGI in assay [1], in [2], in [3], in assay [4], in [5] and in assay [6] was more than 100 µM throughout. The TGI in assay [7], in assay [8] and in assay [9] was more than 100 µM throughout.

For the compound `COc1cc(/C=C/c2ccncc2)cc(OC)c1OC`, the TGI in assay [1] was more than 100 µM; in assay [2] it was more than 100 µM; in assay [3] it was more than 100 µM; in assay [4] it was more than 100 µM; in assay [5] it was more than 100 µM; in assay [6] it was 83.1 µM. Moreover, the TGI in [7], in assay [8] and in [9] was more than 100 µM in each case.

In the case of `CC(C)(C)OC1=C(OC(C)(C)C)C(O)(c2ccccc2)C1=O` (stereo not given), the TGI in assay [2], in assay [3], in assay [4], in [5], in assay [6] and in assay [7] was more than 100 µM in each case. In addition, the TGI in assay [8] and in assay [9] was more than 100 µM each time.

Consider `OC1[C@H]([C@H]2CCCC[C@@H]2O)CCC[C@@H]1[C@@H]1CCCC[C@H]1O` (stereo not given in full), for which the TGI in assay [1], in assay [2], in assay [3], in assay [4], in [5] and in assay [6] was more than 100 µM each time. Further, the TGI in [7], in [8] and in [9] was more than 100 µM throughout.

With `O=C(Nc1ccccc1-c1n[nH]c(=S)[nH]c1=O)C(F)(F)F`, the TGI in [1], in [2], in assay [3], in assay [4], in assay [5] and in assay [6] was more than 100 µM each time. The TGI in assay [7], in assay [8] and in [9] was more than 100 µM in each case.

Regarding `COC(=O)C1=C(c2ccc(OC)c(OC)c2)OC(c2ccc(OC)c(OC)c2)C1` (stereo not given), the TGI was more than 100 µM in assay [2]; more than 100 µM in assay [3]; 47.5 µM in assay [4]; more than 100 µM in assay [5]; more than 100 µM in assay [6]; more than 100 µM in assay [7]. Also, the TGI is more than 100 µM in assay [8] and 36.4 µM in assay [9].

The record behind these values is PubChem BioAssay (NCI).
